# Source: paper PMC8129133, “Polymer-free corticosteroid dimer implants for controlled and sustained drug delivery” (Nature Communications, 2021)
# “And” between values parts separate entries of the source, which are not always exact repeats. Equal values may be shown once.
# How the values were obtained:
# [1] = Dissolution of intravitreal implants in the rabbit eye (IR imaging of implant diameter, model fit); format: in vivo; conditions: for local surface dissolution rate constant / Implant Diameter (%): intravitreal; for local surface dissolution rate constant / Diameter of the drug delivery device / Diameter of drug delivery device: rabbit eye; for Implant Diameter (%): Fig 8b, 30 G × 6 mm implant, rabbit; for Diameter of the drug delivery device: script for Supp Fig 11a (30 G implant); for Diameter of drug delivery device: script for Supp Fig 11b, 32G × 6mm
# Method: Sample preparation. All implants were formed by melt extrusion of Dex-TEG-Dex, followed by cutting of implants to desired length. Samples were loaded into appropriate sized needles (27 G for 27 G implant, 30 G for 30 G, and 32 G implants), packaged, and sterilized by ethylene oxide gas.
# IR imaging. Wide-angle infrared (IR) imaging was performed at baseline, and monthly thereafter for implant imaging and eye health assessment. The imaging was performed using a Heidelberg Spectralis® imaging platform and IR images were analyzed using image analysis software (Image J v.1.8.0) to measure the diameter change of the implants. Three diameter measurements per image and a minimum of two images per implant were used to determine the diameter of the implant at each time point.
# Mathematical modeling of drug release. Modeling of the Dex-TEG-Dex implants in the rabbit eye was performed using a compartmental model of drug release using MathWorks MATLAB R2020b. In this model, the drug delivery device is formed of solid drug dimer which undergoes surface erosion to release dimer into an intermediate domain. In the intermediate domain, dimer undergoes degradation to free drug and mono (linker-drug), which subsequently degrades to free linker and free drug. These components undergo transport to the target domain and are then cleared.
# This model employs several simplifying assumptions. (1) The mechanism of surface dissolution is local (the same for each part of the surface independent of its location on the surface of the implant), in a manner dependent on the properties of the implant’s physiological location (e.g., dimer saturation). (2) Rate constants of processes are time independent, and the dissolution rates only depend on the corresponding changes in the shape of the delivery devices and properties of their environment. (3) Dimer degradation in the domain of interest occurs on a comparatively fast time scale such that the saturation concentration of dimer is not reached.
# A differential equation for the radius, R(t), of a cylindrical drug delivery device described by the compartmental model and derived using Noyes–Whitney equation[74],[75] can be written as (1):1 dR/dt=−DμY/ρh⋅y^*=−b, where D is a diffusion coefficient, µY is the molecular mass of the dimer, ρ is the density of the drug delivery device material, h is the thickness of the concentration gradient layer near the surface, y* is the saturation concentration of the dimer and b is the local surface dissolution rate.
# The initial radius, R, of the cylindrical device is known: R0=R0 . Integrating Eq. (1) with this initial condition, gives Eq. (2):2 Rt=R0−b⋅t
# Equation (2) was fit to available data (time-dependent measurements of implant diameter) to estimate the local surface dissolution rate constant b for the 30 G × 6 mm and 32 G × 6 mm Dex-TEG-Dex intravitreal implants.
# [2] = Composition of pellets as made and after release; format: physicochemical; conditions: Supp Fig 5
# Method: Release studies were carried out using different media, including PBS (pH 7.4, Gibco), 100% FBS (Sigma, F1051), 1% FBS in PBS pH 7.4, and 3.6% BSA (Sigma, A7906) in PBS (pH 7.4, Gibco). Sink conditions were maintained across all of the in vitro release studies through frequent buffer changes, ensuring that the released drug concentration was always at least five times lower than the solubility limit of the drug in the release buffer being used in order to avoid changes in release kinetics caused by drug levels approaching their saturation limit. Samples were incubated in release medium at 37 °C under constant agitation on an orbital shaker at 115 rpm (VWR). At designated timepoints, sampling was performed by complete removal of medium and replenishment with fresh buffer. Sampling timepoints included 24 h and then every 3–4 days thereafter. For PBS release conditions, samples were analyzed directly. For samples with protein (100% FBS, 1% FBS, 3.6% BSA), protein was precipitated by addition of acetonitrile. Samples were vortexed and centrifuged to separate extracted drug from precipitated protein. The supernatant was then analyzed for drug concentration by HPLC.
# Supplementary Figure 5 Proportion of dexamethasone in different forms, namely Dex-TEG-Dex, Dex-TEG, and free Dex (Dex – dexamethasone, TEG – triethylene glycol) in heat-molded pellets as-made and […]
# the dimer following submersion in release buffer for 14 days. N=4 samples for as made and N=3 samples for 14 days. Data represent the mean ± standard deviation.
# (1 picture or pasted object on this page, not shown here)
# [3] = Maximum soluble concentration in culture medium (HPLC); format: physicochemical; conditions: plasma or biological fluid, kinetic from ethanol stock, fibroblast growth medium, 1% ethanol, sterile filtered
# Method: Human dermal fibroblasts were chosen for general cytotoxicity assessment as they are commonly employed in standard cytotoxicity testing outlined in ISO10993 guidelines. […] The resulting solution was sterile filtered (Pall) to remove any non-soluble components and the concentration of Dex-TEG-Dex was confirmed by HPLC (6.7 µg/ml). The […] control was regular culture medium with 1% ethanol, while the negative control was culture medium containing 5% DMSO. Following 24 h exposure to the different test groups, a WST-1 assay was performed. Briefly, WST-1 reagent (Roche) was mixed with growth medium at a 1:10 dilution, added to test groups, and incubated at 37 °C and 5% CO2 for 1 h. Supernatant was transferred to a new well and absorbance was measured at 450 nm. After 24 h exposure to test groups, samples were also visualized following Diff-Quik staining following the manufacturer’s recommended protocol (Siemens). Samples were imaged with a Leica DMIL microscope equipped with a Canon PowerShot S70 camera with ZoomBrowser Ex 5.0 software (Canon, version 5.0.0.142).
# [4] = In vitro half-life / degradation of solubilized Dex-TEG-Dex in FBS; format: in vitro ADME
# Method: Dex-TEG-Dex was dissolved in acetone at 10 mg/ml and added to 100% FBS to obtain a final concentration of 10 µg/ml and incubated at 37 °C with constant agitation at 115 rpm (VWR). At experimental timepoints of t = 0, 0.5, 1, 2, 3, 4, 5, 6, and 24 h, sample was removed and protein was precipitated with acetonitrile. Samples were vortexed and centrifuged to separate extracted drug from the precipitated protein. The supernatant was then analyzed by HPLC as described above.
# [5] = pellets after release in 100% FBS, t=14d
smiles,measurement,setting,value
C[C@@H]1C[C@H]2[C@@H]3CCC4=CC(=O)C=C[C@]4(C)[C@@]3(F)[C@@H](O)C[C@]2(C)[C@@]1(O)C(=O)COC(=O)OCCOCCOCCOC(=O)OCC(=O)[C@@]1(O)[C@H](C)C[C@H]2[C@@H]3CCC4=CC(=O)C=C[C@]4(C)[C@@]3(F)[C@@H](O)C[C@@]21C [Dex-TEG-Dex],local surface dissolution rate constant,[1]; 30 G implant,0.1510 ± 0.0084 µm/day
same,local surface dissolution rate constant,[1]; 32 G implant,0.1522 ± 0.0140 µm/day
same,Implant Diameter (%),[1]; 0 days,107.57% and 103.15% and 92.13% and 99.18% and 92.81% and 97.05% and 100.23% and 107.88%
same,Implant Diameter (%),[1]; 35 days,87.55% and 86.70% and 88.00% and 92.68% and 90.49% and 81.42% and 103.34% and 91.71%
same,Implant Diameter (%),[1]; 76 days,82.56% and 74.07% and 79.78% and 98.06% and 80.37% and 72.75% and 93.94%
same,Implant Diameter (%),[1]; 128 days,76.90% and 66.50% and 66.32% and 64.24% and 79.47% and 77.51% and 67.41% and 82.08%
same,Implant Diameter (%),[1]; 210 days,55.93% and 41.19% and 50.86% and 49.89% and 69.49% and 44.35% and 52.23% and 60.96%
same,Diameter of the drug delivery device,[1]; day 0,115.44 µm and 122.56 µm and 115.98 µm and 121.28 µm and 125.25 µm and 134.81 µm and 135.77 µm and 128.91 µm
same,Diameter of the drug delivery device,[1]; day 35,109.97 µm and 115.81 µm and 110.60 µm and 101.74 µm and 129.14 µm and 114.61 µm and 109.41 µm and 108.35 µm
same,Diameter of the drug delivery device,[1]; day 76,92.56 µm and 99.70 µm and 122.54 µm and 101.44 µm and 90.91 µm and 117.39 µm and 94.21 µm and 112.13 µm
same,Diameter of the drug delivery device,[1]; day 128,81.93 µm and 80.28 µm and 99.31 µm and 96.86 µm and 84.21 µm and 102.57 µm and 96.10 µm and 83.10 µm
same,Diameter of the drug delivery device,[1]; day 185,71.40 µm and 91.90 µm and 62.52 µm and 53.64 µm and 76.76 µm and 78.82 µm and 73.54 µm
same,Diameter of the drug delivery device,[1]; day 210,63.55 µm and 62.35 µm and 86.62 µm and 55.42 µm and 65.27 µm and 76.18 µm and 69.90 µm and 51.48 µm
same,Diameter of drug delivery device,[1]; day 0,71.94 µm and 80.30 µm and 83.05 µm and 99.99 µm and 86.79 µm and 101.43 µm and 116.40 µm and 84.89 µm
same,Diameter of drug delivery device,[1]; day 35,90.18 µm and 66.10 µm and 74.39 µm and 80.46 µm and 84.98 µm and 58.84 µm and 82.44 µm and 84.41 µm
same,Diameter of drug delivery device,[1]; day 76,77.98 µm and 58.21 µm and 73.62 µm and 66.12 µm and 67.29 µm and 54.07 µm and 65.40 µm and 64.89 µm
same,Diameter of drug delivery device,[1]; day 128,43.88 µm and 50.55 µm and 44.52 µm and 60.85 µm and 49.60 µm and 50.03 µm and 42.29 µm and 71.40 µm
same,Proportion of dexamethasone as Dex-TEG-Dex,"[2]; heat-molded pellets as-made, t=0",99.32 and 99.47 and 99.36 and 99.44
same,Proportion of dexamethasone as Dex-TEG,[2]; [5],0.046 and 0.04
same,Proportion of dexamethasone as Dex-TEG-Dex,[2]; [5],99.38 and 99.32 and 99.44
same,solubility,[3],6.7 µg/mL
same,t1/2 of solubilized dimer with protease inhibitor,[4]; FBS + Pefabloc 1 mg/ml,17.5 ± 4.0 h
same,t1/2 of solubilized dimer,"[4]; FBS, 37 °C",1.6 ± 0.3 h
same,Dex-TEG-Dex,"[4]; Fig 4f/4g, 100% FBS, 0 h",8904.60 ng/mL and 12808.33 ng/mL and 10692.90 ng/mL
same,Dex-TEG-Dex,"[4]; Fig 4f/4g, 100% FBS, 0.5 h",7215.95 ng/mL and 9829.58 ng/mL and 8828.65 ng/mL
same,Dex-TEG-Dex,"[4]; Fig 4f/4g, 100% FBS, 1 h",5359.02 ng/mL and 7447.63 ng/mL and 6811.81 ng/mL
same,Dex-TEG-Dex,"[4]; Fig 4f/4g, 100% FBS, 2 h",2692.08 ng/mL and 4406.52 ng/mL and 3872.43 ng/mL
same,Dex-TEG-Dex,"[4]; Fig 4f/4g, 100% FBS, 3 h",1327.43 ng/mL and 2230.11 ng/mL and 1843.05 ng/mL
same,Dex-TEG-Dex,"[4]; Fig 4f/4g, 100% FBS, 4 h",658.17 ng/mL and 1181.11 ng/mL and 1053.60 ng/mL
same,Dex-TEG-Dex,"[4]; Fig 4f, 100% FBS, 24 h",0.00 ng/mL
same,Dex-TEG-Dex,"[4]; Fig 4g, 100% FBS + Pefabloc, 0 h",9696.84 ng/mL and 12099.70 ng/mL and 11672.92 ng/mL
same,Dex-TEG-Dex,"[4]; Fig 4g, 100% FBS + Pefabloc, 0.5 h",9639.71 ng/mL and 11685.46 ng/mL and 12342.53 ng/mL
same,Dex-TEG-Dex,"[4]; Fig 4g, 100% FBS + Pefabloc, 1 h",9646.33 ng/mL and 10767.80 ng/mL and 11272.62 ng/mL
same,Dex-TEG-Dex,"[4]; Fig 4g, 100% FBS + Pefabloc, 2 h",9053.36 ng/mL and 10983.11 ng/mL and 10167.52 ng/mL
same,Dex-TEG-Dex,"[4]; Fig 4g, 100% FBS + Pefabloc, 3 h",9138.02 ng/mL and 9847.00 ng/mL and 8269.83 ng/mL
same,Dex-TEG-Dex,"[4]; Fig 4g, 100% FBS + Pefabloc, 4 h",8469.46 ng/mL and 9930.96 ng/mL and 8280.63 ng/mL
same,Dex-TEG-Dex,"[4]; Fig 4g, 100% FBS + Pefabloc, 5 h",8230.46 ng/mL and 9376.67 ng/mL and 8546.80 ng/mL
same,Dex-TEG-Dex,"[4]; Fig 4g, 100% FBS + Pefabloc, 6 h",7196.79 ng/mL and 9318.49 ng/mL and 8262.17 ng/mL
